Test results: ChEMBL document CHEMBL3774317, “Design and synthesis of novel tamoxifen analogues that avoid CYP2D6 metabolism” (Eur J Med Chem, 2016)

Legend:
SN12C = assay: Cytotoxicity against human SN12C cells assessed as cell growth at 10^-6 M after 48 hrs by SRB assay; type: functional; conditions: read-out: Activity
SK-MEL-2 [1] = assay: Cytotoxicity against human SK-MEL-2 cells assessed as cell growth at 10^-6 M after 48 hrs by SRB assay; type: functional; conditions: SK-MEL-2, 48 h, read-out: Activity
K562 = assay: Cytotoxicity against human K562 cells assessed as cell growth at 10^-8 M after 48 hrs by SRB assay; type: functional; conditions: K562, 48 h, read-out: Activity
[2] = Cytotoxicity against human IGROV1 cells assessed as cell growth at 10^-5 M after 48 hrs by SRB assay; type: functional; conditions: IGROV-1, 48 h, read-out: Activity
[3] = Cytotoxicity against human SNB75 cells assessed as cell growth at 10^-8 M after 48 hrs by SRB assay; type: functional; conditions: SNB-75, 48 h, read-out: Activity
[4] = Cytotoxicity against human HOP92 cells assessed as cell growth at 10^-6 M after 48 hrs by SRB assay; type: functional; conditions: HOP-92, 48 h, read-out: Activity
[5] = Cytotoxicity against human PC3 cells assessed as cell growth at 10^-5 M after 48 hrs by SRB assay; type: functional; conditions: PC-3, 48 h, read-out: Activity
MDA-MB-435 = assay: Cytotoxicity against human MDA-MB-435 cells assessed as cell growth at 10^-5 M after 48 hrs by SRB assay; type: functional; conditions: MDA-MB-435, 48 h, read-out: Activity
[6] = Cytotoxicity against human SNB75 cells assessed as cell growth at 10^-7 M after 48 hrs by SRB assay; type: functional; conditions: SNB-75, 48 h, read-out: Activity
EKVX = assay: Cytotoxicity against human EKVX cells assessed as cell growth at 10^-4 M after 48 hrs by SRB assay; type: functional; conditions: read-out: Activity
[7] = Cytotoxicity against human OVCAR5 cells assessed as cell growth at 10^-6 M after 48 hrs by SRB assay; type: functional; conditions: OVCAR-5, 48 h, read-out: Activity
T47D [8] = assay: Cytotoxicity against human T47D cells assessed as cell growth at 10^-7 M after 48 hrs by SRB assay; type: functional; conditions: read-out: Activity
[9] = Cytotoxicity against human NCI-ADR-RES cells assessed as cell growth at 10^-8 M after 48 hrs by SRB assay; type: functional; conditions: read-out: Activity
[10] = Cytotoxicity against human HCC2998 cells assessed as cell growth at 10^-8 M after 48 hrs by SRB assay; type: functional; conditions: HCC 2998, 48 h, read-out: Activity
[11] = Cytotoxicity against human IGROV1 cells assessed as cell growth at 10^-6 M after 48 hrs by SRB assay; type: functional; conditions: IGROV-1, 48 h, read-out: Activity
T47D [12] = assay: Cytotoxicity against human T47D cells assessed as cell growth at 10^-8 M after 48 hrs by SRB assay; type: functional; conditions: read-out: Activity
Malme-3M = assay: Cytotoxicity against human MALME-3M cells assessed as cell growth at 10^-6 M after 48 hrs by SRB assay; type: functional; conditions: read-out: Activity
T47D [13] = assay: Cytotoxicity against human T47D cells assessed as cell growth at 10^-4 M after 48 hrs by SRB assay; type: functional; conditions: read-out: Activity
[14] = Cytotoxicity against human UACC257 cells assessed as cell growth at 10^-6 M after 48 hrs by SRB assay; type: functional; conditions: UACC-257, 48 h, read-out: Activity
SK-MEL-5 [15] = assay: Cytotoxicity against human SK-MEL-5 cells assessed as cell growth at 50 uM after 48 hrs by SRB assay; type: functional; conditions: SK-MEL-5, 48 h, read-out: Activity
[16] = Cytotoxicity against human OVCAR3 cells assessed as cell growth at 50 uM after 48 hrs by SRB assay; type: functional; conditions: OVCAR-3, 48 h, read-out: Activity
[17] = Cytotoxicity against human UACC62 cells assessed as cell growth at 0.5 uM after 48 hrs by SRB assay; type: functional; conditions: UACC-62, 48 h, read-out: Activity
NCI-H226 = assay: Cytotoxicity against human NCI-H226 cells assessed as cell growth at 50 nM after 48 hrs by SRB assay; type: functional; conditions: NCI-H226, 48 h, read-out: Activity
[18] = Cytotoxicity against human IGROV1 cells assessed as cell growth at 50 nM after 48 hrs by SRB assay; type: functional; conditions: IGROV-1, 48 h, read-out: Activity
[19] = Cytotoxicity against human Caki1 cells assessed as cell growth at 0.5 uM after 48 hrs by SRB assay; type: functional; conditions: CAKI-1, 48 h, read-out: Activity
HT-29 = assay: Cytotoxicity against human HT-29 cells assessed as cell growth at 5 nM after 48 hrs by SRB assay; type: functional; conditions: HT-29, 48 h, read-out: Activity
[20] = Cytotoxicity against human BT549 cells assessed as cell growth at 50 uM after 48 hrs by SRB assay; type: functional; conditions: BT-549, 48 h, read-out: Activity
SK-MEL-5 [21] = assay: Cytotoxicity against human SK-MEL-5 cells assessed as cell growth at 0.5 uM after 48 hrs by SRB assay; type: functional; conditions: SK-MEL-5, 48 h, read-out: Activity
SK-MEL-2 [22] = assay: Cytotoxicity against human SK-MEL-2 cells assessed as cell growth at 5 nM after 48 hrs by SRB assay; type: functional; conditions: SK-MEL-2, 48 h, read-out: Activity
[23] = Cytotoxicity against human UO31 cells assessed as cell growth at 50 uM after 48 hrs by SRB assay; type: functional; conditions: UO-31, 48 h, read-out: Activity
[24] = Cytotoxicity against human OVCAR8 cells assessed as cell growth at 50 nM after 48 hrs by SRB assay; type: functional; conditions: OVCAR-8, 48 h, read-out: Activity
[25] = Cytotoxicity against human HCC2998 cells assessed as cell growth at 5 nM after 48 hrs by SRB assay; type: functional; conditions: HCC 2998, 48 h, read-out: Activity
[26] = Cytotoxicity against human HCC2998 cells assessed as cell growth at 50 uM after 48 hrs by SRB assay; type: functional; conditions: HCC 2998, 48 h, read-out: Activity
[27] = Cytotoxicity against human SF539 cells assessed as cell growth at 5 uM after 48 hrs by SRB assay; type: functional; conditions: SF-539, 48 h, read-out: Activity
M14 = assay: Cytotoxicity against human M14 cells assessed as cell growth at 5 nM after 48 hrs by SRB assay; type: functional; conditions: M14, 48 h, read-out: Activity
U-251 = assay: Cytotoxicity against human U251 cells assessed as cell growth at 5 nM after 48 hrs by SRB assay; type: functional; conditions: U-251, 48 h, read-out: Activity
[28] = Cytotoxicity against human RXF393 cells assessed as cell growth at 50 nM after 48 hrs by SRB assay; type: functional; conditions: RXF 393, 48 h, read-out: Activity
[29] = Metabolic stability in human liver microsomes assessed as remaining parent compound level at 10 uM after 3 hrs in absence of NAPDH by LC/MS analysis; type: ADME; conditions: read-out: Drug metabolism
[30] = Cytotoxicity against human SF295 cells assessed as cell growth at 5 nM after 48 hrs by SRB assay; type: functional; conditions: SF-295, 48 h, read-out: Activity
[31] = Cytotoxicity against human SNB19 cells assessed as cell growth at 50 nM after 48 hrs by SRB assay; type: functional; conditions: SNB-19, 48 h, read-out: Activity
[32] = Cytotoxicity against human HL-60(TB) cells assessed as cell growth at 5 nM after 48 hrs by SRB assay; type: functional; conditions: HL-60, 48 h, read-out: Activity
[33] = Cytotoxicity against human SNB19 cells assessed as cell growth at 5 nM after 48 hrs by SRB assay; type: functional; conditions: SNB-19, 48 h, read-out: Activity

C/C(=C(/c1ccc(O)cc1)c1ccc(OCCN2CCCC2)cc1)c1ccccc1
growth at 1 µM (SN12C): 101% | growth at 1 µM (SK-MEL-2 [1]): 99% | growth at 0.01 µM (K562): 99% | growth at 10 µM [2]: 41% | growth at 0.01 µM [3]: 72% | growth at 1 µM [4]: 84% | growth at 10 µM [5]: 19% | growth at 10 µM (MDA-MB-435): -48% | growth at 0.1 µM [6]: 83% | growth at 100 µM (EKVX): -100% | growth at 1 µM [7]: 85% | growth at 0.1 µM (T47D [8]): 63% | growth at 0.01 µM [9]: 99% | growth at 0.01 µM [10]: 100% | growth at 1 µM [11]: 95% | growth at 0.01 µM (T47D [12]): 62% | growth at 1 µM (Malme-3M): 88% | growth at 100 µM (T47D [13]): -67% | growth at 1 µM [14]: 104%

CCCCCCCCCC(=O)Oc1ccc(/C(=C(/C)c2ccccc2)c2ccc(OCCN3CCCC3)cc2)cc1
growth at 50 µM (SK-MEL-5 [15]): -100% | growth at 50 µM [16]: -84% | growth at 0.5 µM [17]: 64% | growth at 0.05 µM (NCI-H226): 94% | growth at 0.05 µM [18]: 95% | growth at 0.5 µM [19]: 75% | growth at 0.005 µM (HT-29): 101% | growth at 50 µM [20]: -76% | growth at 0.5 µM (SK-MEL-5 [21]): 62% | growth at 0.005 µM (SK-MEL-2 [22]): 101% | growth at 50 µM [23]: -85% | growth at 0.05 µM [24]: 101% | growth at 0.005 µM [25]: 98% | growth at 50 µM [26]: -77% | growth at 5 µM [27]: 92% | growth at 0.005 µM (M14): 98% | growth at 0.005 µM (U-251): 98% | growth at 0.05 µM [28]: 100% | remaining at 3 h, 10 µM [29]: 54% | growth at 0.005 µM [30]: 94% | growth at 0.05 µM [31]: 98% | growth at 0.005 µM [32]: 101% | growth at 0.005 µM [33]: 98%
